Data set [1] relates to influenza virus. As to conditions: in vitro; cited from earlier work.
A further data set concerns A/Anhui/01/2013 (H7N9). Type of data set: cell-based, influenza. As to conditions: A549 cells, 10 μM for 1 hour before infection, 1 MOI H7N9, 24 hours post infection, titrated on MDCK cells.
Data set [2] deals with influenza virus. As to conditions: in vivo; cited from earlier work.
For data set [3], the system named is A/California/04/2009 (H1N1). It is filed as cell-based, influenza.
Data set [4] has as its system A/Brisbane/10/2007 (H3N2). It is filed as cell-based, influenza.

SMILES strings stand for the structures.

Turning to `O=C(NCCN1CCC2(CC1)C(=O)NCN2c1cccc(F)c1)c1ccc2ccccc2c1` [compound 3], in the data set with influenza virus [1], the viral entry result is “delayed viral entry” and the viral titers entry is on record as “reduced viral titers”. The “viral reproduction (TCID50)” value in the data set on A/Anhui/01/2013 (H7N9) is “significantly lowered viral reproduction”. Moreover, in the data set with influenza virus [2], the survival result is given as “increased survival” and the viral titer result is recorded as “reduced viral titer”. In addition, the “cellular toxicity in microscopic image” value with A549 cells is reported as “significant cellular toxicity”. The “viral reproduction (TCID50)” value in data set [3] was “significantly lowered viral reproduction”. The “viral reproduction (TCID50)” value in data set [4] is given as “significantly lowered viral reproduction”.

Values taken from article PMC4535312 (ChemMedChem, 2014).
